Experimental data as given in ChEMBL document CHEMBL1124916, “Neural networks applied to quantitative structure-activity relationship analysis” (1990).
Several values for one entry are separate records, joined by “and”; a condition that tells them apart may be missing. Identical values can stand only once.

Legend:
Assay type in all cases: functional
[1] = Evaluation for the Anti-pentylenetetrazole effect.; design: unit not given here
[2] = Compound was evaluated for the Anti-fighting behavior.; design: scale not given here
Mus musculus [3] = species on record: Mus musculus; test: Optimal Dose (OD) which cause maximum increase in the life span, after chronic injection at log (1/C).
Mus musculus [4] = species on record: Mus musculus; test: Minimum Effective Dose (MED) which cause 40% increase in life span, after chronic injection at log (1/C).
Mus musculus [5] = species on record: Mus musculus; test: Optimal Dose (OD) which cause maximum increase in the life span, after singular injection at log (1/C).

SMILES	Anti-pent effect [1]	Anti-fighting behaviour [2]	OD (Mus musculus [3])	MED (Mus musculus [4])	OD (Mus musculus [5])
C=CCN1C(=O)CN=C(c2ccccc2)c2cc(Cl)ccc21	5.35	4.49			
O=C1CN=C(c2ccccc2F)c2cc([N+](=O)[O-])ccc2N1	6	5.17			
CN(C)CCCN1C(=O)CN=C(c2ccccc2)c2cc(Cl)ccc21	3.38				
O=C1CN=C(c2ccccc2)c2cc(Cl)ccc2N1	4.65				
CN1C(=O)CN=C(c2ccccc2F)c2cc(F)ccc21	3.33				
O=C1CN=C(c2ccccc2)c2cc(Cl)ccc2N1CCCO	4.34	3.61			
O=C1CN=C(c2ccccc2)c2ccccc2N1		3.37			
CN1C(=O)CN=C(c2ccccc2F)c2ccccc21	4.53	3.83			
C=CCN1C(=O)CN=C(c2ccccc2)c2cc(C(F)(F)F)ccc21	5.03	4.54			
CC1=C(N2CC2)C(=O)C(CCCC2=C(N3CC3)C(=O)C(C)=C(N3CC3)C2=O)=C(N2CC2)C1=O			5.39	5.82	
CN1C(=O)CN=C(c2ccccc2)c2cc(Cl)ccc21	5.31	4.45			
O=C1CN=C(c2ccccc2Cl)c2cc([N+](=O)[O-])ccc2N1	6.3	4.2			
CNC(=O)CN1C(=O)CN=C(c2ccccc2)c2cc(Cl)ccc21	5.83	3.63			
CN(C)CCN1C(=O)CN=C(c2ccccc2)c2cc([N+](=O)[O-])ccc21	4.7	4.25			
O=C1CN=C(c2ccccc2C(F)(F)F)c2cc(C(F)(F)F)ccc2N1	4.97	4.27			
CN(C)CCCN1C(=O)CN=C(c2ccccc2F)c2cc(Cl)ccc21	4.76	3.97			
CN(C)CCN1C(=O)CN=C(c2ccccc2)c2cc(C(F)(F)F)ccc21	4.76	4.27			
CC(=O)CN1C(=O)CN=C(c2ccccc2)c2cc(Cl)ccc21	5.28	4.21			
CN1C(=O)CN=C(c2ccccc2C(F)(F)F)c2cc([N+](=O)[O-])ccc21	5.71	4.86			
CCN(CC)CCN1C(=O)CN=C(c2ccccc2F)c2cc(Cl)ccc21	5.38	4.29			
C[S+]([O-])c1ccc2c(c1)C(c1ccccc1)=NCC(=O)N2 (centres undefined)	4.08				

SMILES	Anti-pent effect [1]	Anti-fighting behaviour [2]	OD (Mus musculus [3])	MED (Mus musculus [4])	OD (Mus musculus [5])
CN1C(=O)CN=C(c2ccccc2)c2cc([N+](=O)[O-])ccc21	5.62	5.07			
CCC(C)CN1C(=O)CN=C(c2ccccc2)c2cc(Cl)ccc21 (centres undefined)	4.99	3.53			
O=C1CN=C(c2ccccc2[N+](=O)[O-])c2cc([N+](=O)[O-])ccc2N1	5.97	3.91			
CCCCSc1ccc2c(c1)C(c1ccccc1)=NCC(=O)N2	3.79				
CN(C)c1ccc2c(c1)C(c1ccccc1)=NCC(=O)N2C	4.69	3.86			
CN1C(=O)CN=C(c2ccccc2Cl)c2cc(Cl)ccc21	6.03	4.5			
CCC(C)CN1C(=O)CN=C(c2ccccc2)c2cc([N+](=O)[O-])ccc21 (centres undefined)	4.8	3.77			
CCN1C(=O)CN=C(c2ccccc2)c2cc(Cl)ccc21	4.9	4.17			
O=C1CN=C(c2ccccc2)c2cc([N+](=O)[O-])ccc2N1	5.6	4.75			
CN(C)C(=O)OCCC1=C(N2CC2)C(=O)C(CCOC(=O)N(C)C)=C(N2CC2)C1=O			4.85	5.16	4.62
O=C1CN=C(c2ccccc2Br)c2cc(Cl)ccc2N1	5.77	4.85			
CCN(CC)CCN1C(=O)CN=C(c2ccccc2)c2cc(Cl)ccc21	5.06	3.57			
CN(C)c1ccc2c(c1)C(c1ccccc1)=NCC(=O)N2	3.84				
O=C1CN=C(c2ccccc2)c2cc(Br)ccc2N1	5.2	4.2			
N#Cc1ccc2c(c1)C(c1ccccc1)=NCC(=O)N2	5.3	3.81			
NC(=O)CN1C(=O)CN=C(c2ccccc2)c2cc(Cl)ccc21	5.07	4.21			
CNC(=O)CN1C(=O)CN=C(c2ccccc2)c2cc(C(F)(F)F)ccc21	5.06	3.69			
CCSc1ccc2c(c1)C(c1ccccc1)=NCC(=O)N2	3.57				
CN1C(=O)CN=C(c2ccccc2F)c2cc(Cl)ccc21	5.88	4.78			
Cc1ccccc1C1=NCC(=O)Nc2ccc(Cl)cc21	4.57	3.45			
O=C1CN=C(c2ccccc2Cl)c2cc(Cl)ccc2N1	5.85	5.18			

SMILES	Anti-pent effect [1]	Anti-fighting behaviour [2]	OD (Mus musculus [3])	MED (Mus musculus [4])	OD (Mus musculus [5])
O=C1CN=C(c2ccccc2)c2cc(Cl)ccc2N1Cc1ccccc1	4.64	3.56			
CC(=O)OCCC1=C(N2CC2)C(=O)C(C)=C(N2CC2)C1=O			5.78	5.78	
CN1C(=O)CN=C(c2ccccc2F)c2cc([N+](=O)[O-])ccc21	6.5	5.8			
O=C1CN=C(c2ccccc2C(F)(F)F)c2cc([N+](=O)[O-])ccc2N1	5.7	4.54			
O=C1CN=C(c2ccccc2F)c2cc(Cl)ccc2N1	6.46	4.76			
CN1C(=O)CN=C(c2ccccc2Cl)c2cc([N+](=O)[O-])ccc21	6.92	5.12			
CN(C)CCN1C(=O)CN=C(c2ccccc2)c2cc(Cl)ccc21	4.73	3.53			
O=C1CN=C(c2ccccc2)c2cc(F)ccc2N1		3.4			
CN(C)CCCN1C(=O)CN=C(c2ccccc2)c2cc([N+](=O)[O-])ccc21	5.82 and 4.28	3.61 and 3.96			
CN1C(=O)CN=C(c2ccccc2)c2cc(C#N)ccc21	5.44	4.74			
CSc1ccc2c(c1)C(c1ccccc1)=NCC(=O)N2	4.15	4.15			
CN(C)C(=O)CN1C(=O)CN=C(c2ccccc2)c2cc(Cl)ccc21	5.35	4.25			
NN1C(=O)CN=C(c2ccccc2)c2cc([N+](=O)[O-])ccc21	5.77	5.17			
CSc1ccc2c(c1)C(c1ccccc1)=NCC(=O)N2C	3.6	3.87			
O=C1CN=C(c2ccccc2)c2cc(Cl)ccc2N1CC1CC1	4.9	4.51			
N#Cc1ccc2c(c1)C(c1ccccc1F)=NCC(=O)N2	5.63	4.75			
CNC(=O)CN1C(=O)CN=C(c2ccccc2)c2cc([N+](=O)[O-])ccc21	5.29	4.55			
O=C1CN=C(c2ccccc2)c2cc(C(F)(F)F)ccc2N1	5.48	4.48			
COc1ccccc1C1=NCC(=O)Nc2ccc(Cl)cc21	4.6	3.48			
